Assay [1] has as its system Major depression disorder in Wistar rats. The assay can be described thus: Open field test (ambulatory behavior) in Reserpine-induced major depression disorder. The format is in vivo. As to conditions: 6 minute session, Reserpine induced, oral daily 7 days, mean ± SEM, n = 6.
The test system is the same in assay [2]. Nature of the assay: Forced swim test in Reserpine-induced major depression disorder. In kind it is in vivo. As to conditions: forced swim test 5 min, Reserpine 1.0 mg/kg induced, oral daily 7 days, mean ± SEM, n = 6.

As for `CN(C)CCC[C@@]1(c2ccc(F)cc2)OCc2cc(C#N)ccc21` [Escitalopram, reference compound], in assay [1], the “No. of open arm entries (Open field test)” value is given as 47.83 ± 0.60. Further, in assay [2], the Climbing worked out at 20.17 ± 0.87, the Immobility was determined as 91.67 ± 0.80 and the “Total time spent in active swimming” value came out at 208.33 ± 0.80 s.

The values are drawn from patent US11285167B2, “Synergistic nutritional neuroprotective compositions for ameliorating neural dysfunction” (CELAGENEX RESEARCH (INDIA) PVT. LTD., priority 2019, dated 2022).
